According to publication PMC9599351 (2022):

The compounds below were run on RIV aptamer (DNA, aptamer) TAGGGAAGAGAAGGACATATGATGACTCACAACTGGACGAACGTACTTATCCCCCCCAATCACTAGTGAATT (assay: square-wave voltammetry aptasensor). Details: K+ 0.01 M (KCl); [Fe(CN)6]3−/4−; concentration tested not stated.

| binding | SMILES |
| --- | --- |
| weak | N=C(N)NCCC[C@H](N)C(=O)O |
| weak | O=C(O)[C@@H]1CCCN1 |
| no | OC[C@H]1OC(O)[C@H](O)[C@@H](O)[C@@H]1O (some centres unmarked) |
| no | NCC(=O)O |
| weak | N[C@@H](CS)C(=O)O |
